Where two headings read alike, the source gives them in different places. Residues, ends and D or L forms follow the SMILES beside them.
How the values were obtained:
GPR1 [1] = target: T1, GPR1 (Homo sapiens, UniProt P46091); assay: β-arrestin recruitment (Tango), validation; assay type: cell-based; design: host or cells: HTLA cells (HEK293-derived)
T1 sequence (P46091 1-355): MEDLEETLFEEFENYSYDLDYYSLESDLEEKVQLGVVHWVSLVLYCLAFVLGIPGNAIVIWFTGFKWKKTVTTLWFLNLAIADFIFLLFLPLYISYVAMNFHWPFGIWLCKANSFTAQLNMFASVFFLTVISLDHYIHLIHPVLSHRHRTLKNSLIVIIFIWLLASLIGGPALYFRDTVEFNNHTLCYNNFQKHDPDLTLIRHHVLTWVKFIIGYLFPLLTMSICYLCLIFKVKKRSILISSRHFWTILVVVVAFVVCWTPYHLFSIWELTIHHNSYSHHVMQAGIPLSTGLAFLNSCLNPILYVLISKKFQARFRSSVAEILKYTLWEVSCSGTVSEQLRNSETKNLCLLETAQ

GPR1 [2] = target: T1, GPR1; assay: β-arrestin recruitment (PathHunter); assay type: cell-based; conditions: receptor GPR1; mean, SEM and n (2-3); read-out: b-arrestin recruitment assays (PathHunter) pEC50 (converted)
Protocol: PathHunter eXpress Assays (DiscoverX) were performed in 384-well format according to the manufacturer’s recommendations. GPR1 cells were incubated with peptides for 90 min and luminescence measured using an EnSpire 2300 Multimode plate reader (PerkinElmer).

[3] = tested on: 120 GPCR targets, including all available orphan receptors and 27 known class A peptide receptors; assay: Peptide library screen, β-arrestin recruitment (Tango, fold change, 10 μM); assay type: cell-based, human; conditions: for Active at: (activity in b-arrestin recruitment assays): Tango, receptor(s) at which the known library peptide was active, among its known GPCR target(s), validated pairings; for Confirmation of known target in Tango: repeat hitters of the peptide library screen, the value names the known receptor(s) confirmed in the β-arrestin recruitment (Tango) screen
Protocol: The peptide library was additionally screened against 120 GPCR targets in parallel, including all available orphan receptors and 27 known class A peptide receptors using the Tango assay platform ([Kroeze et al., 2015]). Briefly, HTLA cells (a HEK293 cell line stably expressing a tTA-dependent luciferase reporter and a β-arrestin2-TEV fusion gene) were plated 10,000 cells/well in poly-L-lysine–coated clear-bottom white 384-well plates in DMEM supplemented with 10% FBS, 100 U/ml penicillin and 100 μg/ml streptomycin, 2 μg/ml puromycin and 100 μg/ml hygromycin B. 24 hr later, cells were transfected with Tango GPCR constructs using the calcium phosphate method ([Jordan et al., 1996]). The next day, culture medium was changed to DMEM + 1% dFBS and 10 μM peptides were added for overnight stimulation. Bright-Glo solution (Promega) was incubated for 15–20 min at room temperature, and luminescence was counted using a Trilux luminescence counter (Wallac).

human GPCRs = tested on: human GPCRs; design: method as in Guide to Pharmacology database; conditions: max reported value, ref Guide to Pharmacology database, cited from earlier work; for pEC50_value: receptor XCR1 (xcr1_human, P46094)
Text: Supplement mmc1.xlsx, sheet "HumanGPCRLigands" | column: pKi_value; pKd_value; pEC50_value; pIC50_value

[4] = receptor GPR1, mean, SEM and n (2-3), read-out: b-arrestin recruitment assays (Tango) pEC50 (converted)
[5] = receptor PROKR1 (pkr1_human, Q8TCW9)
[6] = receptor PROKR2 (pkr2_human, Q8NFJ6)

CC(C)C[C@H](NC(=O)[C@H](CCCNC(=N)N)NC(=O)[C@H](CC(=O)O)NC(=O)[C@H](CC(C)C)NC(=O)[C@@H]1CCCN1C(=O)[C@H](CO)NC(=O)CNC(=O)[C@H](Cc1ccccc1)NC(=O)CNC(=O)[C@H](CO)NC(=O)[C@H](Cc1ccccc1)NC(=O)[C@H](CO)NC(=O)[C@H](CCCNC(=N)N)NC(=O)[C@@H](N)CCCCN)C(=O)N[C@@H](CO)C(=O)N[C@@H](C)C(=O)NCC(=O)N[C@@H](CO)C(=O)N[C@H](C(=O)N[C@@H](CC(=O)O)C(=O)N[C@@H](Cc1c[nH]cn1)C(=O)N[C@@H](CCCCN)C(N)=O)C(C)C [141 resynthesized] (H-KRSFSGFGSPLDRLSAGSVDHK-NH2)
EC50 (GPR1 [1]; [4]): 5010 nM | EC50 (GPR1 [2]): 661 nM

CC[C@H](C)[C@H](NC(=O)[C@H](CCCNC(=N)N)NC(=O)[C@H](Cc1c[nH]cn1)NC(=O)[C@H](CO)NC(=O)[C@@H]1CCCN1C(=O)[C@H](CC(=O)O)NC(=O)[C@H](CC(C)C)NC(=O)[C@H](CC(N)=O)NC(=O)[C@H](CCC(N)=O)NC(=O)[C@H](CC(C)C)NC(=O)[C@H](CC(N)=O)NC(=O)[C@H](CCCCN)NC(=O)[C@@H](NC(=O)[C@@H](NC(=O)[C@H](CO)NC(=O)[C@H](CCSC)NC(=O)[C@H](CCCNC(=N)N)NC(=O)CNC(=O)[C@H](CO)NC(=O)[C@@H]1CCCN1C(=O)[C@H](C)NC(=O)[C@@H](N)CCCCN)[C@@H](C)CC)C(C)C)C(=O)N[C@@H](CO)C(=O)N[C@@H](CC(=O)O)C(=O)N[C@@H](CCCNC(=N)N)C(=O)N[C@@H](CC(=O)O)C(=O)N[C@@H](Cc1ccc(O)cc1)C(=O)N[C@@H](CCSC)C(=O)NCC(=O)N[C@@H](Cc1c[nH]c2ccccc12)C(=O)N[C@@H](CCSC)C(=O)N[C@@H](CC(=O)O)C(=O)N[C@@H](Cc1ccccc1)C(N)=O [194 original] (H-KAPSGRMSIVKNLQNLDPSHRISDRDYMGWMDF-NH2)
EC50 (GPR1 [1]; [4]): 5250 nM | EC50 (GPR1 [2]): 9.77 nM

CC[C@H](C)[C@H](NC(=O)[C@H](CCCNC(=N)N)NC(=O)[C@H](Cc1c[nH]cn1)NC(=O)[C@H](CO)NC(=O)[C@@H]1CCCN1C(=O)[C@H](CC(=O)O)NC(=O)[C@H](CC(C)C)NC(=O)[C@H](CC(N)=O)NC(=O)[C@H](CCC(N)=O)NC(=O)[C@H](CC(C)C)NC(=O)[C@H](CC(N)=O)NC(=O)[C@H](CCCCN)NC(=O)[C@@H](NC(=O)[C@@H](NC(=O)[C@H](CO)NC(=O)[C@H](CCSC)NC(=O)[C@H](CCCNC(=N)N)NC(=O)CNC(=O)[C@H](CO)NC(=O)[C@@H]1CCCN1C(=O)[C@H](C)NC(=O)[C@@H](N)CCCCN)[C@@H](C)CC)C(C)C)C(=O)N[C@@H](CO)C(=O)N[C@@H](CC(=O)O)C(=O)N[C@@H](CCCNC(=N)N)C(=O)N[C@@H](CC(=O)O)C(=O)N[C@@H](Cc1ccc(O)cc1)C(=O)N[C@@H](CCSC)C(=O)NCC(=O)N[C@@H](Cc1c[nH]c2ccccc12)C(=O)N[C@@H](CCSC)C(=O)N[C@@H](CC(=O)O)C(=O)N[C@@H](Cc1ccccc1)C(N)=O [194 resynthesized] (H-KAPSGRMSIVKNLQNLDPSHRISDRDYMGWMDF-NH2)
EC50 (GPR1 [1]; [4]): 6610 nM | EC50 (GPR1 [2]): 27.5 nM

CSCC[C@H](NC(=O)[C@@H](N)Cc1c[nH]c2ccccc12)C(=O)N[C@@H](CC(=O)O)C(=O)N[C@@H](Cc1ccccc1)C(N)=O [194.2 (Phoenix)]
EC50 (GPR1 [1]; [4]): 39.8 nM | EC50 (GPR1 [2]): 0.0132 nM

CC(C)C[C@H](NC(=O)[C@H](CCCNC(=N)N)NC(=O)[C@H](CC(=O)O)NC(=O)[C@H](CC(C)C)NC(=O)[C@@H]1CCCN1C(=O)[C@H](CO)NC(=O)CNC(=O)[C@H](Cc1ccccc1)NC(=O)CNC(=O)[C@H](CO)NC(=O)[C@H](Cc1ccccc1)NC(=O)[C@H](CO)NC(=O)[C@H](CCCNC(=N)N)NC(=O)[C@@H](N)CCCCN)C(=O)N[C@@H](CO)C(=O)N[C@@H](C)C(=O)NCC(=O)N[C@@H](CO)C(=O)N[C@H](C(=O)N[C@@H](CC(=O)O)C(=O)N[C@@H](Cc1c[nH]cn1)C(=O)N[C@@H](CCCCN)C(N)=O)C(C)C [Peptide 141] (H-KRSFSGFGSPLDRLSAGSVDHK-NH2)
EC50 (GPR1 [1]; HTLA cells transiently transfected, overnight stimulation, luciferase, mean ± SEM of 3-4 independent experiments in triplicate, read-out: pEC50, β-arrestin recruitment (Tango), GPR1 (converted)): 2510 nM

AADHDVGSELPPEGVLGALLRV [Peptide 146]
Active at: (activity in b-arrestin recruitment assays) [3]: GPR83

CYFQNCPRG (disulfide) [Peptide 44]
Active at: (activity in b-arrestin recruitment assays) [3]: V1a V1b V2 OT

CYIQNCPLG (disulfide) [Peptide 45]
Active at: (activity in b-arrestin recruitment assays) [3]: V1a V2 OT

DEGPYRMEHFRWGSPPKD [Peptide 126]
Active at: (activity in b-arrestin recruitment assays) [3]: MC4R

FGGFTGARKSARKLANQ [Peptide 120]
Active at: (activity in b-arrestin recruitment assays) [3]: NOP

FRVDEEFQSPFASQSRGYFLFRPRN [Peptide 159]
Active at: (activity in b-arrestin recruitment assays) [3]: NMUR1

FVPIFTYGELQRMQEKERNKGQ [Peptide 145]
Active at: (activity in b-arrestin recruitment assays) [3]: MLNR | Confirmation of known target in Tango [3]: Motilin receptor

ILQRGSGTAAVDFTKKDHTATWGRPFFLFRPRN [Peptide 195]
Active at: (activity in b-arrestin recruitment assays) [3]: NMUR1, NMUR2 | Confirmation of known target in Tango [3]: NMUR1

KRSFSGFGSPLDRLSAGSVDHK [141 original]
b-arrestin recruitment assays (Tango) Emax (fold change) (GPR1 [1]; receptor GPR1, mean, SEM and n (2-3)): 14.4 fold change

SYSMEHFRWGKPV [Peptide 93]
Active at: (activity in b-arrestin recruitment assays) [3]: MC4R

VPNLPQRF [Peptide 29]
Active at: (activity in b-arrestin recruitment assays) [3]: NPFF1

WYKPAAGHSSYSVGRAAGLLSGL [Peptide 152]
Active at: (activity in b-arrestin recruitment assays) [3]: NPBW1

YGGFL [Peptide 14]
Active at: (activity in b-arrestin recruitment assays) [3]: Inactive

YGGFLRKYP [Peptide 46]
Active at: (activity in b-arrestin recruitment assays) [3]: Kappa

YGGFMTSEKSQTPLVTLFKNAIIKNAYKKGE [Peptide 182]
Active at: (activity in b-arrestin recruitment assays) [3]: kappa, mu

YVMGHFRWDRF [Peptide 74]
Active at: (activity in b-arrestin recruitment assays) [3]: MC4R

B1: XCL1 (protein, UniProt P47992 22-114, looked up)
Lymphotactin: VGSEVSDKRTCVSLTTQRLPVSRIKTYTITEGSLRAVIFITKRGLKVCADPQATWVRDVVRSMDRKSNTRNNMIQTKPTGTQQSTNTAVTLTG
pEC50_value (human GPCRs): 7.3

B2: XCL2 (protein, UniProt Q9UBD3 22-114, looked up)
Cytokine SCM-1 beta: VGSEVSHRRTCVSLTTQRLPVSRIKTYTITEGSLRAVIFITKRGLKVCADPQATWVRDVVRSMDRKSNTRNNMIQTKPTGTQQSTNTAVTLTG
pEC50_value (human GPCRs): 7.3

B3: prokineticin-1 (protein, UniProt P58294 20-105, looked up)
Prokineticin-1: AVITGACERDVQCGAGTCCAISLWLRGLRMCTPLGREGEECHPGSHKVPFFRKRKHHTCPCLPNLLCSRFPDGRYRCSMDLKNINF
pIC50_value (human GPCRs; [5]): 7.6 | pIC50_value (human GPCRs; [6]): 7.3

B4: CX3CL1 (protein, UniProt P78423 25-397, looked up)
Fractalkine: QHHGVTKCNITCSKMTSKIPVALLIHYQQNQASCGKRAIILETRQHRLFCADPKEQWVKDAMQHLDRQAAALTRNGGTFEKQIGEVKPRTTPAAGGMDESVVLEPEATGESSSLEPTPSSQEAQRALGTSPELPTGVTGSSGTRLPPTPKAQDGGPVGTELFRVPPVSTAATWQSSAPHQPGPSLWAEAKTSEAPSTQDPSTQASTASSPAPEENAPSEGQRVWGQGQSPRPENSLEREEMGPVPAHTDAFQDWGPGSMAHVSVVPVSSEGTPSREPVASGSWTPKAEEPIHATMDPQRLGVLITPVPDAQAATRRQAVGLLAFLGLLFCLGVAMFTYQSLQGCPRKMAGEMAEGLRYIPRSCGSNSYVLVPV
pIC50_value (human GPCRs; receptor CX3CR1 (cx3c1_human, P49238)): 8.9

B5: prokineticin-2 (protein, UniProt Q9HC23 28-129, looked up)
Prokineticin-2: AVITGACDKDSQCGGGMCCAVSIWVKSIRICTPMGKLGDSCHPLTRKNNFGNGRQERRKRKRSKRKKEVPFFGRRMHHTCPCLPGLACLRTSFNRFICLAQK
pIC50_value (human GPCRs; [5]): 8.4 | pIC50_value (human GPCRs; [6]): 8.2

— article PMC6838683, “Discovery of Human Signaling Systems: Pairing Peptides to G Protein-Coupled Receptors” (Cell, 2019)
